Experimental data: article PMC10009108, “Design, synthesis and screening of indole acetic acid-based tri-azo moieties as antioxidants, anti-microbial and cytotoxic agents” (Frontiers in Pharmacology, 2023)
Converted amounts (≈) assume the structure as drawn.

How the values were obtained:
[1] = tested on: Klebsiella pneumoniae (ATCC-1705); experiment: Antibacterial assay, micro broth dilution; type: cell-based; details: ATCC1705
Description: (§1) The micro broth dilution method was used to establish the antibacterial potential of test samples against Staphylococcus aureus (ATCC-6538), Bacillus subtilis (ATCC-6633), Escherichia coli (ATCC-25922), Klebsiella pneumoniae (ATCC-1705), and Pseudomonas aeruginosa (ATCC-15442) and for the resistant strains of MRSA Staphylococcus aureus, P. aeruginosa and Escherichia coli. The procedure used is described by ([Sarker et al., 2007]). Bacterial inoculum was formed under aseptic conditions keeping the density near 5 × 10^4 CFU/mL in pre-autoclaved nutrient broth. Test samples of an aliquot of 5 µL were shifted to labeled wells of 96 well plates, and after that addition of 195 µL of nutrient broth; was accomplished. After that, a 2-fold serial dilution of every sample was arranged to get final concentrations of 12.5 μg/mL. Then, with the help of a micropipette, 195 µL of bacterial culture of respective strains was poured into each well; further advancement was incubating of plates for 30 min at the temperature of 37°C. […] Incubation of plates was again carried out at 37°C for 1 day, absorbance was noted, and net change in turbidity was the difference between two values of absorbance.
(§2) Schiff base tri-azo compounds were investigated for antibacterial potential. […] 6.25 μg/mL for 5b and 5g, and the least, Table 4 3.12 μg/mL was for 5f. […] Substituents with electron-withdrawing attributes, e.g., -NO2, -Cl, -OH on the aromatic ring, assert a great impact on the antibacterial activity of synthetic compounds. It is also observed that an increase in the number of -OH groups tend to enhance the activity ([Hosamani and Shingalapur, 2011]). Due to the difference in cell-wall composition of Gram + ve and -ve bacteria, different compounds show different features towards the same micro-organism ([Goszczyn’ska et al., 2015]).

[2] = tested on: Staphylococcus aureus (ATCC-6538); experiment: Antibacterial assay, micro broth dilution; type: cell-based; details: ATCC6538, read-out: S. aureus MIC
Description: as §1, §2

[3] = tested on: Escherichia coli (ATCC-25922); experiment: Antibacterial assay, micro broth dilution; type: cell-based; details: ATCC25922, read-out: E. coli MIC
Description: as §1, §2

[4] = tested on: Pseudomonas aeruginosa (ATCC-15442); experiment: Antibacterial assay, micro broth dilution; type: cell-based; details: ATCC15442
Description: as §1, §2

resistant E.coli = experiment: Antibacterial assay, resistant strains; type: cell-based, Escherichia coli; details: resistant strain
Description: as §1, §2

MRSA [5] = experiment: Antibacterial assay, resistant strains; type: cell-based, Staphylococcus aureus; details: 25 μg/mL; resistant strain
MRSA [6] = experiment: Antibacterial assay, resistant strains; type: cell-based; details: Staphylococcus aureus, resistant strain
Description: as §1, §2

[7] = tested on: Bacillus subtilis (ATCC-6633); experiment: Antibacterial assay, micro broth dilution; type: cell-based; parameters: key to Antibacterial activity, Bacillus subtilis: Activity: Active = Bacterial activity; --- = no activity
Description: as §1, §2

resistant P. aeruginosa = experiment: Antibacterial assay, resistant strains; type: cell-based; details: resistant strain
Description: as §1, §2

[8] = tested on: Pseudomonas aeruginosa (ATCC-15442); experiment: Antibacterial assay, micro broth dilution; type: cell-based; parameters: key: Active = Bacterial activity; --- = no activity; details: 25 μg/mL
resistant S. aureus = experiment: Antibacterial assay, resistant strains; type: cell-based, Staphylococcus aureus; details: resistant strain
Description: as §1, §2

[9] = tested on: Klebsiella pneumoniae (ATCC-1705); experiment: Antibacterial assay, micro broth dilution; type: cell-based; parameters: key: Active = Bacterial activity; --- = no activity; details: 25 μg/mL
[10] = tested on: Staphylococcus aureus (ATCC-6538); experiment: Antibacterial assay, micro broth dilution; type: cell-based; parameters: key: Active = Bacterial activity; --- = no activity; details: 25 μg/mL
[11] = tested on: Escherichia coli (ATCC-25922); experiment: Antibacterial assay, micro broth dilution; type: cell-based; parameters: key: Active = Bacterial activity; --- = no activity; details: 25 μg/mL
in vivo = experiment: in vivo
Method: The cytotoxic evaluation was accomplished using the decorum designed by ([Khan et al., 2011]). To a plate of 96 wells, artificial seawater and nauplii were added. Test samples were taken in wells (40, 20, 10, 5 μg/mL) after making up the final volume with seawater, the plates were left uncovered under the lamp, and after 24 h, the number of surviving larvae was calculated. For samples having ≥50% mortality, the median lethal conc was calculated using the table curve software, Doxorubicin was used as + ve control, and DMSO was the -ve. The percentage of killed organisms was found using the formula. Percentage Mortality=No of dead shrimps÷Total Number of Shrimps×100
The results of all the experiments were articulated as mean ± SD. Each test was performed in triplicate. TAC assay was analyzed by one-way analysis of variance (ANOVA) following DUNCAN’S test using the statistical package for social sciences 18 and p < 0.05 was considered as significant where appropriate. For samples having ≥50% mortality, the median lethal concentration (LC50) was calculated using the table curve software.
This evaluation test forms the basis for the bioactive scanning of compounds for their potential as anti-cancer moieties, to be investigated on a large scale ([Amanullah et al., 2012]). […] Similarities between Artemia salina and mammalian cells have been reported due to DNA-dependent RNA polymerases ([Birndorf et al., 1975]). These Schiff bases were investigated for their cytotoxic potential. […] Doxorubicin was used as the positive control.

[12] = tested on: Streptomyces 85 E strains; experiment: Protein kinase inhibition assay; type: cell-based; details: Sample Concentration = 20 μg/mL; Surfactin B 20 μg/mL
[13] = tested on: Streptomyces 85 E strains; experiment: Protein kinase inhibition assay; type: cell-based; parameters: key: Active = Bacterial activity; --- = no activity; details: Sample Concentration = 20 μg/mL; Surfactin B 20 μg/mL
Method: The protocol followed for this is mentioned ([Fatima et al., 2015]). To assess the test compound’s inhibitory potential, Streptomyces 85 E strains were used, which were refreshed in tryptone soya broth at 37 for 1 day. Spores from refreshed cultures were utilized to prepare the bacterial culture. 100 μg compound was loaded on 5 mm discs of filter paper. These were kept on sowed plates. DMSO-permeated discs were the -ve control. The incubation period was 7 days, and outcomes were stated as bald and clear zones of inhibition.
These synthetic products were evaluated to estimate the inhibitory potential for protein kinase of […] 85 E. Protein kinase is involved with the mycelium production of this species, so the growth patterns were observed as the bald zone. […] One of the propitious targets in cancer treatment is the inhibition of protein kinases. Protein phosphorylation by protein kinases at various residues regulates diverse biological processes, which may include apoptosis, proliferation and differentiation of cells. Deregulation at any step in early tumorigenesis may lead to cancer ([Yao et al., 2011]). Aerial hyphae formation in Streptomyces depends upon protein kinase activity; this scenario is exploited in this test; to inquire about these compounds’ kinase inhibition potential and to look at their anti-cancer potential. The advantage of using Streptomyces for kinase inhibition assay is its predisposition to a wide range of eukaryotic cells. Whole-cell assay of Streptomyces not only identifies the compound’s cytotoxic potential but also identifies signal transduction inhibitors for various activities, e.g., antitumor, anti-mycobacterial, and anti-infective ([Waters et al., 2002]). […] Activity with a bald zone of 10.5 mm and a clear zone of 7.5 mm, following is 5a with a bald zone of 9 mm and a clear zone of 6 mm, and for 5g, values are 7.5 and 6 mm, respectively. It means that these compounds have the potential for protein kinase inhibition as well as the toxicity of the compound.

[14] = tested on: Aspergillus flavus (FCBP-0064); experiment: Antifungal disc diffusion assay; type: cell-based; details: Aspergillus flavus; 20 μg/disc
Method: (§3) The antifungal response to these chemical moieties was evaluated through a procedure designated by ([Zahra et al., 2017]). Amphotericin B (4 mg/mL DMSO) is used as + ve control and DMSO as-ve one (5 μL/disc). Sterile SDA-coated plates were used, on which 100 µL of suspension of spores for each strain (previously reaped-in-Tween-20 solution) was spread. Discs of sterile filter paper containing 5 µL of sample solution (4 mg/mL DMSO) were kept on plates and incubated for 2 days at 28°C. Zones of inhibition were recorded.
(§4) The Synthetic compound library was subjected to an antifungal assay using five different strains of Fungai, i.e., Fusarium solani (FCBP-0291), Aspergillus fumigatus (FCBP-66), Aspergillus flavus (FCBP-0064), Aspergillus niger (FCBP-0198) and Mucor species (FCBP-0300). Amphotericin B was the standard drug used. […] The outcomes are concise in Table 5.

[15] = tested on: Aspergillus niger (FCBP-0198); experiment: Antifungal disc diffusion assay; type: cell-based; details: Aspergillus niger; 20 μg/disc
Method: as §3, §4

[16] = tested on: Fusarium solani (FCBP-0291); experiment: Antifungal disc diffusion assay; type: cell-based; details: Fusarium solani, 20 μg/disc; read-out: Zone of inhibition, F. solani
Method: as §3, §4

[17] = tested on: Aspergillus fumigatus (FCBP-66); experiment: Antifungal disc diffusion assay; type: cell-based; details: Aspergillus fumigatus; 20 μg/disc
Method: as §3, §4

[18] = tested on: Mucor species (FCBP-0300); experiment: Antifungal disc diffusion assay; type: cell-based; details: Mucor; 20 μg/disc
Method: as §3, §4

O=C(O)c1cn(C2CC2)c2cc(N3CCNCC3)c(F)cc2c1=O [Ciprofloxacin, reference compound]
MIC [1]: 3.12 µg/mL (≈ 9.42 µM) | MIC [2]: 3.12 µg/mL (≈ 9.42 µM) | MIC [3]: 3.12 µg/mL (≈ 9.42 µM) | MIC [4]: 3.12 µg/mL (≈ 9.42 µM) | Antibacterial activity, resistant E.coli: Activity (resistant E.coli; 25 μg/mL): Active | MIC (resistant E.coli; Escherichia coli): 3.12 µg/mL (≈ 9.42 µM) | Antibacterial activity, MRSA: Activity (MRSA [5]): Active | MIC (MRSA [6]): 3.12 µg/mL (≈ 9.42 µM) | Antibacterial activity, Bacillus subtilis: Activity ([7]; 25 μg/mL): Active | MIC ([7]; Bacillus subtilis, ATCC6633): 3.12 µg/mL (≈ 9.42 µM) | Antibacterial activity, resistant P. aeruginosa: Activity (resistant P. aeruginosa; 25 μg/mL): Active | MIC (resistant P. aeruginosa; Pseudomonas aeruginosa): 3.12 µg/mL (≈ 9.42 µM) | Antibacterial activity, Pseudomonas aeruginosa: Activity [8]: Active | Antibacterial activity, resistant S. aureus: Activity (resistant S. aureus; 25 μg/mL): Active | MIC (resistant S. aureus; Staphylococcus aureus): 3.12 µg/mL (≈ 9.42 µM) | Antibacterial activity, Klebsiella pneumoniae: Activity [9]: Active | Antibacterial activity, S. aureus: Activity [10]: Active | Antibacterial activity, E. coli: Activity [11]: Active

COc1cccc2c1C(=O)c1c(O)c3c(c(O)c1C2=O)C[C@@](O)(C(=O)CO)C[C@@H]3O[C@H]1C[C@H](N)[C@H](O)[C@H](C)O1 [Doxorubicin, reference compound]
LC50 at 24 h (in vivo): 5.7 µg/mL (≈ 10.5 µM)

Surfactin B [reference compound]
Bald zone [12]: 22.3 mm | Clear zone [13]: ---

C[C@@H]1[C@H](O)[C@@H](C)/C=C/C=C/C=C/C=C/C=C/C=C/C=C/[C@H](O[C@@H]2O[C@H](C)[C@@H](O)[C@H](N)[C@@H]2O)C[C@@H]2O[C@](O)(C[C@@H](O)C[C@@H](O)[C@H](O)CC[C@@H](O)C[C@@H](O)CC(=O)O[C@H]1C)C[C@H](O)[C@H]2C(=O)O [Amphotericin B, reference compound]
zone of inhibition at 20 µg/disc [14]: 12 mm | zone of inhibition at 20 µg/disc [15]: 12.5 mm | zone of inhibition at 20 µg/disc [16]: 11.5 mm | zone of inhibition at 20 µg/disc [17]: 10 mm | zone of inhibition at 20 µg/disc [18]: 11.5 mm
